Source: patent publication US6800652B2, “Diaryl compounds” (Pfizer Inc., priority 2002, dated 2004)

Key:
Format in all cases: cell-based
[1] = target: T1, human serotonin transporter (hSERT) (Homo sapiens, UniProt P31645); test: Inhibition of 3H-serotonin uptake in HEK-293 cells stably transfected with hSERT; details: HEK-293 hSERT cells, 3H-5HT 50 nM, 5 min incubation, room temperature; read-out: SRI (serotonin re-uptake inhibition) IC50
T1 construct: expressed in transfected cells
Experimental: A number of compounds were tested for biological activity by their ability to inhibit the uptake of serotonin by human serotonin transporters as follows.
(§1) Human embryonic kidney cells (HEK-293) stably transfected with either the human serotonin transporter (hSERT), noradrenaline transporter (hNET) or dopamine transporter (hDAT) were cultured under standard cell culture techniques (cells were grown at 37° C. and 5% CO2 in DMEM-culture media (supplemented with 10% dialysed foetal calf serum (FCS), 2 mM I-glutamine and 250 μg/ml geneticin)). Cells were harvested for the assay to yield a cell suspension of 750,000 cells/ml.
(§2) All test compounds were dissolved in 100% DMSO and diluted down in assay buffer to give appropriate test concentrations. Assays were carried out in 96-well filter bottom plates. Cells (7500 cells/assay well) were pre-incubated in standard assay buffer containing either test compound, standard inhibitor or compound vehicle (1% DMSO) for 5 minutes. Reactions were started by addition of either ^3H-Serotonin, ^3H-Noradrenaline or ^3H-Dopamine substrates. All reactions were carried out at room temperature in a shaking incubator. […] The quantity of ^3H-substrate incorporated into the cells was then quantified.
(§3) Assay plates were dried in a microwave oven, scintillation fluid added, and radioactivity measured. […]

[2] = target: T2, dopamine transporter (hDAT) (Homo sapiens, UniProt Q01959); test: Inhibition of 3H-dopamine uptake in HEK-293 cells stably transfected with hDAT; details: HEK-293 hDAT cells, 3H-Dopamine 200 nM, 5 min incubation, room temperature; read-out: DRI (dopamine re-uptake inhibition) IC50
T2 construct: expressed in transfected cells
Experimental: as §1
as §2, with “incubator. Incubation times were 5 minutes for the hSERT and hDAT assays and 15 minutes for the hNET assay.” for “incubator.”
as §3

[3] = target: T3, noradrenaline transporter (hNET) (Homo sapiens, UniProt P23975); test: Inhibition of 3H-noradrenaline uptake in HEK-293 cells stably transfected with hNET; details: HEK-293 hNET cells, 3H-Noradrenaline 200 nM, 15 min incubation, room temperature; read-out: NRI (noradrenaline re-uptake inhibition) IC50
T3 construct: expressed in transfected cells
Experimental: as §1
as §2, with “incubator. Incubation times were 5 minutes for the hSERT and hDAT assays and 15 minutes for the hNET assay.” for “incubator.”
as §3

T2 sequence (Q01959 whole entry): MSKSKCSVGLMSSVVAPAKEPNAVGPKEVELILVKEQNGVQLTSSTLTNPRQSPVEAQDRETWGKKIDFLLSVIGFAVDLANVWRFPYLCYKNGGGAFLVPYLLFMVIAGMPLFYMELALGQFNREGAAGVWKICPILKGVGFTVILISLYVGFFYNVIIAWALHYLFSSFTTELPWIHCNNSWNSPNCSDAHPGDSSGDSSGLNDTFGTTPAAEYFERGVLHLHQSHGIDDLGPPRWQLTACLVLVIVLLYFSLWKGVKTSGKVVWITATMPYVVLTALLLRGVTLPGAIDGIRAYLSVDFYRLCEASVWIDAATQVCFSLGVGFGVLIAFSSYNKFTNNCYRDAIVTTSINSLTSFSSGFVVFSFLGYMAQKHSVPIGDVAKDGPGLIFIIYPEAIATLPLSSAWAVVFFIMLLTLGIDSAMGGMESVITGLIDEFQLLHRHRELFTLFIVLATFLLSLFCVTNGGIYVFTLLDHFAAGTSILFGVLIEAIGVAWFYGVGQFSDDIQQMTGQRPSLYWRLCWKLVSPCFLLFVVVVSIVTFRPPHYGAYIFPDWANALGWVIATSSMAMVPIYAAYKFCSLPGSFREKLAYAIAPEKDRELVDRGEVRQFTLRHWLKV
T3 sequence (P23975 whole entry): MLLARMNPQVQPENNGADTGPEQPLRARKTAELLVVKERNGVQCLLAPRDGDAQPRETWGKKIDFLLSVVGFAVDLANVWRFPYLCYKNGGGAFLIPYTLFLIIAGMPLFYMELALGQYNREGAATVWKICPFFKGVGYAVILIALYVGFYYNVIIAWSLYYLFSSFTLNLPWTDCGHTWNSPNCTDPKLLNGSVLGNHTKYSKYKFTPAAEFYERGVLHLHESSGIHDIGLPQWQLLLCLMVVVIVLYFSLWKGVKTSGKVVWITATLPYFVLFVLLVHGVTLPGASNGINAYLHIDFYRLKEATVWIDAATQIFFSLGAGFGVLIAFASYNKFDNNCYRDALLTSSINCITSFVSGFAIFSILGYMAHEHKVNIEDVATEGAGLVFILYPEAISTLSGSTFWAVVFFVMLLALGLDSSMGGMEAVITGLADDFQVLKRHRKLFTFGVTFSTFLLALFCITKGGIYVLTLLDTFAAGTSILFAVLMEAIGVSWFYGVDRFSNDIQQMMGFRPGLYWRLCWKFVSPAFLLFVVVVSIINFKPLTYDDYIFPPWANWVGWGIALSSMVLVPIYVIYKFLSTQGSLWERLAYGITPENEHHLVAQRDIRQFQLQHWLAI
T1 sequence (P31645 whole entry): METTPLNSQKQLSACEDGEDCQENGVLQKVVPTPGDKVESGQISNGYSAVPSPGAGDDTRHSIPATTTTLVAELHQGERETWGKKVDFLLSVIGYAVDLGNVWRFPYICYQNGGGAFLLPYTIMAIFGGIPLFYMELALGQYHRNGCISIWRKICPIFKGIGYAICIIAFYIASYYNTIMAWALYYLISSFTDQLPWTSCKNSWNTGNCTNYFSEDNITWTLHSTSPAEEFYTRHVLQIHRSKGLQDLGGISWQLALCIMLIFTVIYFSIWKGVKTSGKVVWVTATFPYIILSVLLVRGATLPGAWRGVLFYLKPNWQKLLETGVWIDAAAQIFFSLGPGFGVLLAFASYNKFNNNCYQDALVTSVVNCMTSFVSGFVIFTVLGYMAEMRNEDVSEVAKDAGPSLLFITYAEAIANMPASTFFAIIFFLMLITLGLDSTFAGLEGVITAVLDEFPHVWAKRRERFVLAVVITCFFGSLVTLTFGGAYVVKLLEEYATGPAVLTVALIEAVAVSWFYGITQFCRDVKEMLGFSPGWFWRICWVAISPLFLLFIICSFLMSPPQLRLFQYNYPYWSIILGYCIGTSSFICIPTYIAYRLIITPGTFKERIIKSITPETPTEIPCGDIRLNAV

**Q.** What does the source list for CSc1ccc(Sc2ccncc2CN(C)C)cc1 [Example 2, N,N-Dimethyl-N-[(4-{[4-(methylsulfanyl)phenyl]sulfanyl}-3-pyridinyl)methyl]amine]?
**A.** IC50 [1]: 2.2 nM; IC50 [2]: 11700 nM; IC50 [3]: 564 nM
